Tests used:
HeLa cell lysates = assay: KAYAK in vitro kinase assay, lysates of asynchronous, G1/S- or G2/M-arrested HeLa cells; assay type: biochemical, human; conditions: G2/M phase compared to asynchronously growing HeLa cells
Protocol: For cell cycle examples, HeLa cells were synchronized by double thymidine block for G1/S-arrest and by 0.2 μg/ml nocodazole for G2/M-arrest as described (Dephoure et al. 2008 Proc Natl Acad Sci USA 105: 10762-10767). Synchronization was confirmed by flow cytometry.
(§1) For cell lysis, the media were removed, and cells were washed with ice-cold phosphate-buffered saline (PBS) and lysed with ice-cold lysis buffer (10 mM K2HPO4 pH 7.5, 1 mM EDTA, 10 mM MgCl2, 50 mM β-glycerophosphate, 5 mM EGTA, 0.5% Nonidet P-40, 0.1% Brij 35, 0.1% deoxycholic acid, 1mM sodium orthovanadate, 1mM phenylmethyl-sulfonyl fluoride, 5 μg/ml leupeptin and 5 μg/ml pepstatin A). Lysates were centrifuged at 10,000 rpm for 10 min to remove cell debris, and clear supernatant was used for immunoblotting and in vitro kinase assays. Protein concentration was determined by Bradford assay (Biorad, Hercules, Calif.).
(§2) Peptides were synthesized, purified and quantified as described in Yu et al. 2009 Proc Natl Acad Sci USA 106: 11606-11611, hereby incorporated by reference herein in its entirety. Each substrate peptide (250 pmol) was mixed to a final concentration of 5 μM in the 50 μL reaction mixture. Alternatively, reactions were performed using 6 μg cell lysate aliquotes mixed to a final volume of 20 μl. Cell lysate or other kinase source was added to the substrate mixture in 25 mM Tris-Cl, pH 7.5, containing 5 mM ATP, 7.5 mM MgCl2, 0.2 mM EGTA, 7.5 mM β-glycerophosphate, 0.1 mM Na3VO4, and 0.1 mM DTT. The reaction was incubated at 25° C. for 60 min and then terminated by the addition of 100 μl of 1% trifluoroacetic acid (TFA) containing a known amount of an internal standard (typically 20 pmol). Alternatively, the reaction was incubated at 20° C. for 45 min before termination with TFA.
(§3) Forty-five individual in vitro kinase reaction mixtures were combined and desalted by using Sep-Pak C18 cartridge (Waters, Milford, Mass.). Phosphopeptides were enriched by immobilized metal ion chromatography (IMAC) with 20 μl of beads (Phos-Select iron affinity gel; Sigma, St. Louis, Mo.) and subsequently desalted by using Empore C18 solid phase extraction disks (3M, St. Paul, Minn.) as described previously.
(§4) Quantitation of the target peptide-internal standard ratios was performed by first constructing the extracted ion chromatogram for the most abundant charge state for each peptide using a ±10 ppm window. Chromatograms were integrated using Qual/Quan browser (Xcalibur 2.0.5, Thermo Fisher, San Jose, Calif.). Since the phosphorylated peptides generated from the in vitro kinase reactions were chemically identical to the internal standards, they were assumed to have the same ionization efficiency. Therefore, the amount of each phosphorylated peptide was calculated by direct ratio to the internal standard level.
(§5) To test substrate suitability in a multiplexed assay, the phosphorylation activities were measured using […] of each substrate peptide, 6 μg lysate, and 5 mM ATP in a plate format. Reactions proceeded for 60 minutes followed by acidification and the addition of isotope-labeled reference peptides. After pooling 45 samples, phosphopeptide enrichment was followed by liquid-chromatography (LC) separation and on-line peptide detection by high-resolution mass spectrometry.
In order to examine target peptides with cell-cycle-dependent phosphorylation, kinase activities in asynchronously growing HeLa cells were profiled and the profiles were compared with those of cells synchronized in G1/S and G2/M phase using a double-thymidine block and nocodazole arrest, respectively (FIG. 3B).

HEK293 cell lysates [1] = assay: KAYAK in vitro kinase assay, individual reactions, lysates of starved, insulin- or EGF-stimulated HEK293 cells; assay type: biochemical, human; conditions: for E: changed phosphorylation in EGF stimulated condition: EGF-stimulated compared to starved HEK293 cells; for increase in phosphorylation after EGF: EGF-stimulated vs serum-starved HEK293 lysate; for increase in phosphorylation after insulin: insulin-stimulated vs serum-starved HEK293 lysate
Protocol: (§6) For stimulation of HEK293 cells or HeLa lines, cells were treated with insulin (100 nM; 10-30 min) EGF (50 ng/ml; 10 min) or phorbol 12-myristate 13-acetate (PMA; 50 or 100 ng/ml; 10 -30 min) at 37° C. for the indicated times after overnight serum-starvation.
as §1, §2, §3, §4, §5
The ability of the peptides to report specific changes in kinase activation after pathway stimulation was examined herein. Lysates from HEK293 cells were collected after insulin or EGF treatment and were compared to their activities in the serum-starved state using the KAYAK approach. Western blot analysis of lysates from cells in which the PI3K and MAPK pathways were activated, as indicated by elevated phospho-Akt and phospho-ERK1/2 levels, respectively, is shown in FIG. 1D. […]

activated, purified Akt = molecular target: T1, activated, purified Akt (Homo sapiens, UniProt P31749); assay: In vitro peptide phosphorylation by purified Akt; assay type: biochemical; conditions: control, 2 ng purified kinase
T1 construct: Purified human active kinases of Akt1 (full length); purchased Cell Signaling Technology (Danvers, Mass.)
Text: (§7) Reaction mixture was supplemented with 0.1% BSA. Other conditions were the same as in FIG. 10A.
(§8) Purified human active kinases of Akt1 (full length), extracellular signal-regulated kinase 1 (ERK1, 1-379), mitogen-activated protein kinase kinase 1 (MEK1, 1-393), 90 kDa ribosomal S6 kinases 1 (RSK1, 1-735), cAMP-dependent protein kinase (PKA) catalytic subunit-α (PKA Cα, 1-351), protein kinase Cα (PKCα, full length), epidermal growth factor (EGF) receptor (EGFR, 672-1210), platelet-derived growth factor (PDGF) receptor α (PDGFRα, 550-1090), vascular endothelial growth factor (VEGF) receptor 1 (VEGFR1 784-1338), Src (full length), casein kinase 2 (CK2, full length), Aurora A (1-403), AMP-activated protein kinase α1β1γ1 (AMPK α1β1γ1, full length), glycogen synthase kinase-3α (GSK-3α, 1-483) and MAP/microtubule affinity-regulating kinase 1 (MARK 1, full length) were obtained from Cell Signaling Technology (Danvers, Mass.). Cdc2/cyclin B1 (full length) and insulin-like growth factor (IGF)-I receptor (IGFIR, 959-1367) were obtained from Upstate (Temecula, Calif.).
Peptides were synthesized, purified and quantified as described in Yu et al. 2009 Proc Natl Acad Sci USA 106: 11606-11611, hereby incorporated by reference herein in its entirety. […] Alternatively, reactions were performed using 6 μg cell lysate aliquotes mixed to a final volume of 20 μl. […]

recombinant RSK1 = molecular target: T2, recombinant RSK1 (Homo sapiens, UniProt Q15418); assay: In vitro peptide phosphorylation by purified RSK; assay type: biochemical
T2 construct: 90 kDa ribosomal S6 kinases 1 (RSK1, 1-735); purchased Cell Signaling Technology (Danvers, Mass.)
Text: as §7, §8
as §2, with “Each substrate peptide (250 pmol) was mixed to a final concentration of 5 μM in the 50 μL reaction mixture.” left out
(§9) It was observed that basal phosphorylation of these peptides was not affected by knockdown and likely was the result of remaining RSK isoforms or other basophilic kinases (FIG. 5C).

HEK293 cells [2] = assay: Single-reaction KAYAK of HEK293 cells treated with kinase inhibitors followed by insulin stimulation; assay type: cell-based, human; conditions: HEK293, inhibitor 30 min then 100 nM insulin 30 min
HEK293 cell lysates [3] = assay: Single-reaction 90-substrate KAYAK assay, HEK293 lysates with or without insulin; assay type: biochemical, human; conditions: for phosphorylation in response to insulin stimulation: 5 μM each peptide, HEK293 lysate
Protocol: as §6
Alternatively, cells were washed with PBS once and lysed with ice-cold lysis buffer, 10 mM potassium phosphate, pH 7.0, containing 0.5% NP-40, 0.1% Brij 35, 0.1% deoxycholic acid, 1 mM ethylenediaminetetraacetic acid (EDTA), 5 mM ethylene glycol tetraacetic acid (EGTA), 10 mM MgCl2, 50 mM β-glycerophosphate, 1 mM Na3VO4, 2 mM dithiothreitol (DTT) and protease inhibitor cocktail (Complete, Roche Applied Science, Indianapolis, Ind.). Homogenates were centrifuged at 10,000 rpm for 15 min at 4° C., and the supernatant was used as lysate. Protein concentration was quantified by a modified Bradford assay (Pierce).
as §2
Internal standard heavy peptides (5 pmol each) were added as a mixture to the terminated reactions followed by desalting with a solid phase extraction cartridge (SepPak tC18 (50 mg), Waters, Milford, Mass.). Phosphopeptides were enriched as described (Villen et al. 2008 Nat Protoc 3: 1630-1638). […]
For KAYAK analyses, phosphopeptides were dissolved in 5% FA and injected onto a 125-μm-internal diameter fused silica column packed with Magic C18 AQ material (Michrom Bioresources, Auburn, Calif.). Peptides were separated using a two-solvent system: solvent A (0.125% FA and 3% ACN in H2O), solvent B (0.125% FA in ACN) over 32 min gradient, and eluting peptides were directly analyzed using an LTQ-Orbitrap mass spectrometer (Thermo Scientific, San Jose, Calif.) equipped with the electron transfer dissociation option. […]

HEK293 cells [4] = assay: KAYAK of lysates from HEK293 cells pretreated with inhibitors before mitogen stimulation; assay type: cell-based, human
Protocol: For drug inhibition studies, cells were pretreated with U0126 (5 μM) or Wortmannin (100 nM) for 1 hr prior to hormone stimulation.
as §2
The KAYAK method was applied to measure the effect of pharmacological inhibitors or siRNA-mediated knockdown of kinase pathways after mitogen stimulation (see FIGS. 5A-5D and 8 for data obtained by immunoblotting analysis of cell lysates). […] EGF stimulated cell lysates strongly phosphorylated peptides B6, C6, C11 and G5 and these effects were blocked by pretreating cells with the MEK-specific inhibitor U0126.
In contrast, phosphorylation levels of these peptides were not changed as a result of insulin stimulation. […] PMA activates the MAPK pathway by activating the upstream kinase, PKC (Blenis et al. 1993 Proc Natl Acad Sci USA 90: 5889-5892). Because the observed increase in phosphorylation was reversed by prior treatment of cells with U0126, it was concluded that these peptides were not PKC substrates. Rather they were likely phosphorylated by kinases downstream of the MAPK pathway.
as §9

T2 sequence (Q15418 whole entry): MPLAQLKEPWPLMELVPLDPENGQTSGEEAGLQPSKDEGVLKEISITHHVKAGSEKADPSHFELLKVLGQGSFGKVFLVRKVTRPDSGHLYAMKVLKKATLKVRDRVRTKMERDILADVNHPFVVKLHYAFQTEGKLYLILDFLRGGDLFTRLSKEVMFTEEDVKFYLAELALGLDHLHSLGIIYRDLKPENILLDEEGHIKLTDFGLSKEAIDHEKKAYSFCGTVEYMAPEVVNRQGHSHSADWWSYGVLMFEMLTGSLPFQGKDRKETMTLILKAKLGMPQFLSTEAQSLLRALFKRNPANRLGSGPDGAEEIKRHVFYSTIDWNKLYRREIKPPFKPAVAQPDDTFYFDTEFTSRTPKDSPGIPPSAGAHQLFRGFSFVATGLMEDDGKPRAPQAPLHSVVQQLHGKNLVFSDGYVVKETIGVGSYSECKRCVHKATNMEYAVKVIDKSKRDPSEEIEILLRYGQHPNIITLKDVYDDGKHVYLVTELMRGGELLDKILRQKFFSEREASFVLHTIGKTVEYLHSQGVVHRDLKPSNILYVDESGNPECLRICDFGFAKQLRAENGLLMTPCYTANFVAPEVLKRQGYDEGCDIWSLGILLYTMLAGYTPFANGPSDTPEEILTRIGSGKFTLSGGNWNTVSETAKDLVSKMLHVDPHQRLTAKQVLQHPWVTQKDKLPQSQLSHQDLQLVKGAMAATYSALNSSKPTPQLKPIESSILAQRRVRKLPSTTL
T1 sequence (P31749 whole entry): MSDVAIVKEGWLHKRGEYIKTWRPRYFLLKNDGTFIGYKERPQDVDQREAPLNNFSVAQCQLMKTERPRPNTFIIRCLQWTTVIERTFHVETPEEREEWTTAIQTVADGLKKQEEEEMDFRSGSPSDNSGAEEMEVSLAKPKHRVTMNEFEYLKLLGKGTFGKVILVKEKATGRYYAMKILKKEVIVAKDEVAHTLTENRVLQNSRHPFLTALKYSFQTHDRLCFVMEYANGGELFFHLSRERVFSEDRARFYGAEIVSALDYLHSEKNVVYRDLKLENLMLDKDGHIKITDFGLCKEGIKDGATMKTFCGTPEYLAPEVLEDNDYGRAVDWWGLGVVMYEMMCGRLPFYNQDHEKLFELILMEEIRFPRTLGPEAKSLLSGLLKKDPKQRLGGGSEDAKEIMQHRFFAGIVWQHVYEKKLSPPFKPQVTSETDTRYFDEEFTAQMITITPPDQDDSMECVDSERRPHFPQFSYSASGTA

Row | Compound | G2/M: changed phosphorylation (HeLa cell lysates) | E: changed phosphorylation in EGF stimulated condition (HEK293 cell lysates [1]) | effect on insulin-stimulated phosphorylation of peptide E11 (HEK293 cells [2]) | phosphorylation in response to insulin stimulation (HEK293 cell lysates [3]) | increase in phosphorylation after EGF (HEK293 cell lysates [1]) [fold] | increase in phosphorylation after insulin (HEK293 cell lysates [1]) [fold] | other results
1 | TKRSGSVYEPPFR (The sequence was designed and synthesized) [C6] | − (A change of more +2 fold and −2 fold is indicated by “+” and “−”, respectively.) | + (A change of more +2 fold and −2 fold is indicated by “+” and “−”, respectively.) |  |  |  |  | phosphorylation by Akt (activated, purified Akt): not significantly phosphorylated; phosphorylation by recombinant RSK1 in vitro (recombinant RSK1): robustly phosphorylate
2 | O=c1[nH]c2ccccc2n1C1CCN(Cc2ccc(-c3nc4cc5[nH]cnc5cc4nc3-c3ccccc3)cc2)CC1 [Akt inhibitor VIII] |  |  |  |  |  |  | effect on phosphorylation rate of the A3 peptide (HEK293 cells [2]): decreased
3 | C[S+]([O-])c1ccc(-c2nc(-c3ccncc3)c(-c3ccc(F)cc3)[nH]2)cc1 (stereo not drawn) [SB203580] |  |  | paradoxical upregulation |  |  |  | 
4 | RKRLISSVEDPFR (The sequence was designed and synthesized) [E11] | − (A change of more +2 fold and −2 fold is indicated by “+” and “−”, respectively.) | + (A change of more +2 fold and −2 fold is indicated by “+” and “−”, respectively.) |  | increased phosphorylation | 2.3 | 1.7 | increase of phosphorylation rate with insulin (HEK293 cell lysates [3]; HEK293): more than 2 fold
5 | N#CC(=C(/N)Sc1ccccc1N)/C(C#N)=C(\N)Sc1ccccc1N [U0126] |  |  | blocked |  |  |  | effect on EGF-stimulated phosphorylation of peptides B6, C6, C11 and G5 (HEK293 cells [4]; 5 μM, 1 hr pretreatment, HEK293): blocked; RSK-equivalent activity of lysate, peptide C6 as substrate (HEK293 cells [4]; cells pretreated with U0126 then stimulated with EGF, EGF alone approximately 0.6 ng per μg): 0.2 ng RSK/μg lysate; effect on PMA-induced increase in phosphorylation of RSK peptides (HEK293 cells [4]; prior treatment of cells, HEK293): reversed
6 | RPRAATFPFR (The sequence was designed and synthesized) [A3] |  | + (A change of more +2 fold and −2 fold is indicated by “+” and “−”, respectively.) |  | increased phosphorylation | 2.9 | 4.6 | I: changed phosphorylation in insulin stimulated condition (HEK293 cell lysates [1]; insulin-stimulated compared to starved HEK293 cells): ++ (A change of more than +4 and −4 fold is indicated by “++” and “−−”, respectively.)
